# Measurements: ChEMBL document CHEMBL1123935 (J Med Chem, 1987)
# pKi: −log10 of the molar value.
# Molecular target: D(2) dopamine receptor (Rattus norvegicus, UniProt P61169)
# Test: Compound was tested for inhibitory activity against the binding of [3H]spiperone to Dopamine receptor D2 in rat striatal membranes
# Format: cell membranes, Membrane
# Chain of D(2) dopamine receptor (P61169 whole entry): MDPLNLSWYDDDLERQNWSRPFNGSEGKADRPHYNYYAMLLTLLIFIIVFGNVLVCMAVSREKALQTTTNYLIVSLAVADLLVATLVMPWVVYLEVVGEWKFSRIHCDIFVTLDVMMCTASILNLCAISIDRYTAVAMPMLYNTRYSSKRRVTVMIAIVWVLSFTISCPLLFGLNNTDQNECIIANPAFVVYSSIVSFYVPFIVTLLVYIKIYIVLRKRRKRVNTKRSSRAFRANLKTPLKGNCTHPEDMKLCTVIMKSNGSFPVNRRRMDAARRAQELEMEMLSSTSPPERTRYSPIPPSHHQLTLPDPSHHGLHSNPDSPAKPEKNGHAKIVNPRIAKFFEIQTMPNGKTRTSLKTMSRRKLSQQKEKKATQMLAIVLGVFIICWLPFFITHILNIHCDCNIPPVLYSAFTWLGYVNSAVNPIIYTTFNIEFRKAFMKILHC
row,pKi,Structure (SMILES)
1,6.55,C[S+](C)CCCN1c2ccccc2Sc2ccc(Cl)cc21
2,5.67,C[N+](C)(C)CCCN1c2ccccc2Sc2ccc(Cl)cc21
